Source: PubChem BioAssay (NCI)
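Cells were grown in 96-well plates and exposed to each compound for 48 hours at five concentrations; endpoints were interpolated linearly between bracketing concentrations, or set to the highest concentration if not reached. GI50 is the concentration that inhibits growth by half. At the TGI there is no net growth.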

How the values were obtained:
Experiment in all cases: DTP human tumour cell line panel, 48 h
[1] = tested on: 786-0 renal
[2] = tested on: A498 renal
[3] = tested on: A549 NSCLC
[4] = tested on: ACHN renal
[5] = tested on: CAKI-1 renal
[6] = tested on: CCRF-CEM leukemia
[7] = tested on: COLO 205 colon
[8] = tested on: DU-145 prostate
[9] = tested on: EKVX NSCLC
[10] = tested on: HCC-2998 colon
[11] = tested on: HCT-116 colon
[12] = tested on: HCT-15 colon
[13] = tested on: HL-60(TB) leukemia
[14] = tested on: HOP-62 NSCLC
[15] = tested on: HT29 colon
[16] = tested on: IGROV1 ovarian
[17] = tested on: K-562 leukemia
[18] = tested on: KM12 colon
[19] = tested on: LOX IMVI melanoma
[20] = tested on: M14 melanoma
[21] = tested on: MALME-3M melanoma
[22] = tested on: MDA-MB-231 breast
[23] = tested on: MDA-MB-435
[24] = tested on: MDA-N
[25] = tested on: MOLT-4 leukemia
[26] = tested on: NCI-H226 lung
[27] = tested on: NCI-H23 lung
[28] = tested on: NCI-H460 lung
[29] = tested on: NCI-H522 lung
[30] = tested on: NCI/ADR-RES ovarian
[31] = tested on: OVCAR-3 ovarian
[32] = tested on: OVCAR-4 ovarian
[33] = tested on: OVCAR-5 ovarian
[34] = tested on: PC-3 prostate
[35] = tested on: RXF 393 renal
[36] = tested on: SF-268 CNS
[37] = tested on: SF-295 CNS
[38] = tested on: SF-539 CNS
[39] = tested on: SK-MEL-2 melanoma
[40] = tested on: SK-MEL-28 melanoma
[41] = tested on: SK-MEL-5 melanoma
[42] = tested on: SK-OV-3 ovarian
[43] = tested on: SN12C renal
[44] = tested on: SNB-19 CNS
[45] = tested on: SNB-75 CNS
[46] = tested on: SR leukemia
[47] = tested on: SW-620 colon
[48] = tested on: T-47D breast
[49] = tested on: TK-10 renal
[50] = tested on: U251 CNS
[51] = tested on: UACC-257 melanoma
[52] = tested on: UACC-62 melanoma
[53] = tested on: UO-31 renal

C=Cc1cc2c(cc1O)CC[C@@H]1[C@@H]2CC[C@]2(C)[C@@H](O)CC[C@@H]12
TGI [1]: 14.3 µM | TGI [2]: 39.1 µM | TGI [3]: 19.9 µM | TGI [4]: 21.1 µM | TGI [5]: 20.8 µM | TGI [6]: 17.2 µM | TGI [7]: 30.1 µM | GI50 [8]: 4.41 µM | TGI [8]: 16.6 µM | TGI [9]: 29 µM | TGI [10]: 25.4 µM | GI50 [11]: 2.57 µM | TGI [11]: 12.1 µM | TGI [12]: 28.8 µM | TGI [13]: 7.27 µM | GI50 [14]: 5.04 µM | TGI [14]: 19.8 µM | TGI [15]: 29.5 µM | TGI [16]: 19.3 µM | TGI [17]: 20.4 µM | TGI [18]: 14.9 µM | TGI [19]: 25.1 µM | TGI [20]: 17.7 µM | TGI [21]: 10.4 µM | TGI [22]: 18.7 µM | TGI [23]: 4.29 µM | TGI [24]: 7.76 µM | TGI [25]: 14.5 µM | TGI [26]: 30.7 µM | TGI [27]: 14.3 µM | TGI [28]: 21.1 µM | TGI [29]: 20.6 µM | TGI [30]: 5.3 µM | GI50 [31]: 2.57 µM | TGI [31]: 8.74 µM | TGI [32]: 26.9 µM | TGI [33]: 41.3 µM | TGI [34]: 36.5 µM | TGI [35]: 8.92 µM | TGI [36]: 21.9 µM | TGI [37]: 10.5 µM | TGI [38]: 5.53 µM | TGI [39]: 21.1 µM | TGI [40]: 16.7 µM | TGI [41]: 15.7 µM | TGI [42]: 28.3 µM | GI50 [43]: 5.12 µM | TGI [43]: 19.5 µM | TGI [44]: 13.6 µM | TGI [45]: 24.4 µM | TGI [46]: 8.4 µM | TGI [47]: 14.2 µM | TGI [48]: 36.2 µM | TGI [49]: 38.3 µM | TGI [50]: 15.1 µM | TGI [51]: 8.87 µM | GI50 [52]: 2.53 µM | TGI [52]: 8.65 µM | TGI [53]: 20.5 µM
